Structures can show the parent of a compound that is named as a salt.
The compounds below were run against T1, cPLA2 crudely purified from the cytoplasm fraction of U937 (Homo sapiens, UniProt P47712) (assay: Measurement of cPLA2 inhibitory activity (release of [14C]-arachidonic acid from phosphatidyl choline liposome)). Conditions: not given.
T1 construct: cPLA2 crudely purified from the cytoplasm fraction of U937; endogenous in cells; host or cells: U937 cells (cytoplasm fraction, crude purification)
T1 sequence (P47712 1-749): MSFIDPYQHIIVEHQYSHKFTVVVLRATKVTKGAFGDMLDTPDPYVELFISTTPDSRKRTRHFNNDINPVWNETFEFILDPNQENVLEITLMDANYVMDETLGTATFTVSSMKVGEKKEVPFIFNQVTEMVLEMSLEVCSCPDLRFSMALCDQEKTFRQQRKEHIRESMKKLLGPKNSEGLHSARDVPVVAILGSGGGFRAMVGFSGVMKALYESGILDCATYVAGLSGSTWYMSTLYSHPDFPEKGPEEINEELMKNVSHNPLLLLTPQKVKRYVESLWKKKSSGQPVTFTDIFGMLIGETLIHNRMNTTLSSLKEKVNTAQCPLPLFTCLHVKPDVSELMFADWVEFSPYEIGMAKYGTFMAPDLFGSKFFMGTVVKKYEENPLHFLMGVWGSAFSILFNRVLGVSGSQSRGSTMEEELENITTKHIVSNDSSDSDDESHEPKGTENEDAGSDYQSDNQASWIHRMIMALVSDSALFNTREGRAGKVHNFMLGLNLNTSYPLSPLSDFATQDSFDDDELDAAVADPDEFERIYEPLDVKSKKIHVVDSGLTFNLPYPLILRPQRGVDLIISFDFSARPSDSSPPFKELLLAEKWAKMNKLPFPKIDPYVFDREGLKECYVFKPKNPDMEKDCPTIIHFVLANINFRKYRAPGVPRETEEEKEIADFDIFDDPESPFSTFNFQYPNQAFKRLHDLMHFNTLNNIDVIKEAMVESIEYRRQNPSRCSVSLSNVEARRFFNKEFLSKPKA
Format: biochemical
Procedure, shortened: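 The read-out is radioactivity from extracted [14C]-arachidonic acid, freed over 60 min at 37° C from liposomes of 14C-arachidonyl phosphatidylcholine (10 μM PC in the added solution). Buffer was 50 mM HEPES pH 7.5 with Ca2+, DTT, NaCl and BSA. IC50 was derived from inhibition relative to enzyme control minus no-enzyme control.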

Row | Structure (SMILES) | IC50 [nM]
1 | Cc1c(C(=O)Cc2ccccc2)c2cc(/C=C/C(=O)O)ccc2n1-c1ccccc1 [Example 44, (2E)-3-[2-methyl-1-phenyl-3-(phenylacetyl)-1H-indol-5-yl]-2-propenoic acid] | 421
2 | COc1ccc(CC(=O)c2cn(-c3ccccc3)c3ccc(/C=C/C(=O)O)cc23)cc1 [Example 64, (2E)-3-{3-[(4-methoxyphenyl)acetyl]-1-phenyl-1H-indol-5-yl}-2-propenoic acid] | 19600
3 | O=C(O)CCc1ccc2c(c1)c(C(=O)c1ccccc1)cn2-c1ccccc1 [Example 4, 3-(3-benzoyl-1-phenyl-1H-indol-5-yl)propanoic acid] | 146
4 | O=C(O)CCc1ccc2c(c1)c(Cc1cccc3ccccc13)cn2-c1ccccc1 [Example 51, 3-[3-(1-naphthylmethyl)-1-phenyl-1H-indol-5-yl]propanoic acid] | 704
5 | O=C(O)CCc1ccc2c(c1)c(C(=O)Cc1ccc(Cl)cc1)cn2-c1ccccc1 [Example 57, 3-{3-[(4-chlorophenyl)acetyl]-1-phenyl-1H-indol-5-yl}propanoic acid] | 1390

Same assay, conditions: cPLA2 from U937 cytoplasm fraction, [14C]arachidonyl-phosphatidyl choline liposome, 37° C., 60 minutes; read-out: cPLA2 inhibitory activity, 50% inhibiting concentration IC50

Row | Structure (SMILES) | IC50 [nM]
6 | O=C(O)CCc1ccc2c(c1)c(CCc1ccccc1)cn2-c1ccc(CN2CCCC2)cc1 [Example 306, 3-{3-(2-phenylethyl)-1-[4-(pyrrolidin-1-ylmethyl)phenyl]-1H-indol-5-yl}propanoic acid] | 871
7 | CCCOc1cccc(-n2cc(CCc3ccccc3)c3cc(CCC(=O)O)ccc32)c1 [Example 161, 3-[3-(2-phenylethyl)-1-(3-propoxyphenyl)-1H-indol-5-yl]propanoic acid] | 813
8 | O=C(O)CCc1ccc2c(c1)c(CCc1ccccc1)cn2-c1ccc(OCCc2cccnc2)cc1 [Example 253, 3-{3-(2-phenylethyl)-1-[4-(2-pyridin-3-ylethoxy)phenyl]-1H-indol-5-yl}propanoic acid] | 14
9 | O=C(O)CCc1ccc2c(c1)c(CCc1ccccc1)cn2-c1ccc(OCCCc2cccnc2)cc1 [Example 257, 3-{3-(2-phenylethyl)-1-[4-(3-pyridin-3-ylpropoxy)phenyl]-1H-indol-5-yl}propanoic acid] | 7
10 | COc1cccc(-n2cc(CCc3ccccc3)c3cc(CCC(=O)O)ccc32)c1 [Example 107, 3-[1-(3-methoxyphenyl)-3-(2-phenylethyl)-1H-indol-5-yl]propanoic acid 2-amino-2-(hydroxymethyl)propane-1,3-diol salt (1:1)] | 195
11 | O=C(O)CCc1ccc2c(c1)c(CCc1ccccc1)cn2-c1ccc(OC2CCCCO2)cc1 (stereo not drawn) [Example 213, 3-{3-(2-phenylethyl)-1-[4-(tetrahydro-2H-pyran-2-yloxy)phenyl]-1H-indol-5-yl}propanoic acid] | 15
12 | O=C(O)CCc1ccc2c(c1)c(CCc1ccccc1)cn2-c1ccc(OC2CCOCC2)cc1 [Example 225, 3-{3-(2-phenylethyl)-1-[4-(tetrahydro-2H-pyran-4-yloxy)phenyl]-1H-indol-5-yl}propanoic acid] | 8
13 | CC(=O)Nc1ccc(-n2cc(CCc3ccccc3)c3cc(CCC(=O)O)ccc32)nc1 [Example 140, 3-{1-[5-(acetylamino)-2-pyridinyl]-3-(2-phenylethyl)-1H-indol-5-yl}propanoic acid] | 117
14 | O=C(O)CCc1ccc2c(c1)c(CCc1ccccn1)cn2-c1ccc(O)cc1 [Example 269, 3-[1-(4-hydroxyphenyl)-3-(2-pyridin-2-ylethyl)-1H-indol-5-yl]propanoic acid hydrochloride] | 77
15 | O=C(O)CCc1ccc2c(c1)c(CCc1ccc(F)cc1)cn2-c1ccccc1 [Example 62, 3-{3-[2-(4-fluorophenyl)ethyl]-1-phenyl-1H-indol-5-yl}propanoic acid 2-amino-2-(hydroxymethyl)propane-1,3-diol salt (1:1)] | 565
16 | O=C(O)CCc1ccc2c(c1)c(CCc1ccccc1)cn2-c1ccccn1 [Example 132, 3-[3-(2-phenylethyl)-1-(2-pyridinyl)-1H-indol-5-yl]propanoic acid hydrochloride] | 225
17 | O=C(CCc1ccc2c(c1)c(CCc1ccccc1)cn2-c1ccc(OC(F)F)cc1)NS(=O)(=O)c1ccccc1 [Example 332, 3-{1-[4-(difluoromethoxy)phenyl]-3-(2-phenylethyl)-1H-indol-5-yl}-N-(phenylsulfonyl)propanamide] | > 3000
18 | O=C(O)CCc1ccc2c(c1)c(CCc1ccccc1)cn2-c1ccc(CN2CCOCC2)cc1 [Example 308, 3-{1-[4-(morpholin-4-ylmethyl)phenyl]-3-(2-phenylethyl)-1H-indol-5-yl}propanoic acid] | 149
19 | O=C(O)CCc1ccc2c(c1)c(CCc1ccccc1)cn2-c1ccc(OCc2ccccn2)cc1 [Example 246, 3-{3-(2-phenylethyl)-1-[4-(pyridin-2-ylmethoxy)phenyl]-1H-indol-5-yl}propanoic acid hydrochloride] | 7
20 | O=C(O)CCc1ccc2c(c1)c(CCc1ccccn1)cn2-c1ccc(OCc2ccccc2)cc1 [Example 268, 3-{1-[4-(benzyloxy)phenyl]-3-(2-pyridin-2-ylethyl)-1H-indol-5-yl}propanoic acid] | 19
21 | N#Cc1cccc(-n2cc(CCc3ccccc3)c3cc(CCC(=O)O)ccc32)c1 [Example 173, 3-[1-(3-cyanophenyl)-3-(2-phenylethyl)-1H-indol-5-yl]propanoic acid] | 259
22 | O=C(O)CCc1ccc2c(c1)c(CCc1ccccn1)cn2-c1ccc(COc2ccc(F)cc2)cc1 [Example 300, 3-[1-{4-[(4-fluorophenoxy)methyl]phenyl}-3-(2-pyridin-2-ylethyl)-1H-indol-5-yl]propanoic acid hydrochloride] | 381
23 | COc1ccccc1-n1cc(CCc2ccccc2)c2cc(CCC(=O)O)ccc21 [Example 109, 3-[1-(2-methoxyphenyl)-3-(2-phenylethyl)-1H-indol-5-yl]propanoic acid 2-amino-2-(hydroxymethyl)propane-1,3-diol salt (1:1)] | 224
24 | COc1ccc(-n2cc(CCc3ccccc3)c3cc(CCC(=O)O)ccc32)cc1OC [Example 211, 3-[1-(3,4-dimethoxyphenyl)-3-(2-phenylethyl)-1H-indol-5-yl]propanoic acid] | 790
25 | O=C(O)CCc1ccc2c(c1)c(CCc1ccccn1)cn2-c1ccc(OC(F)F)cc1 [Example 277, 3-{1-[4-(difluoromethoxy)phenyl]-3-(2-pyridin-2-ylethyl)-1H-indol-5-yl}propanoic acid hydrochloride] | 98
26 | O=C(O)CCc1ccc2c(c1)c(CCc1ccccn1)cn2-c1cccc(OCc2ccccc2)c1 [Example 281, 3-{1-[3-(benzyloxy)phenyl]-3-(2-pyridin-2-ylethyl)-1H-indol-5-yl}propanoic acid hydrochloride] | 278
27 | CCOc1cccc(-n2cc(CCc3ccccc3)c3cc(CCC(=O)O)ccc32)c1 [Example 159, 3-[1-(3-ethoxyphenyl)-3-(2-phenylethyl)-1H-indol-5-yl]propanoic acid] | 515
28 | O=C(O)CCc1ccc2c(c1)c(CCc1ccccc1)cn2-c1ccc(OCCN2CCCC2)cc1 [Example 223, 3-{3-(2-phenylethyl)-1-[4-(2-pyrrolidin-1-ylethoxy)phenyl]-1H-indol-5-yl}propanoic acid hydrochloride] | 57
29 | CCOc1ccc(-n2cc(CCc3ccccc3)c3cc(CCC(=O)O)ccc32)cc1 [Example 112, 3-[1-(4-ethoxyphenyl)-3-(2-phenylethyl)-1H-indol-5-yl]propanoic acid 2-amino-2-(hydroxymethyl)propane-1,3-diol salt (1:1)] | 15
30 | O=C(O)/C=C/c1ccc2c(c1)c(CCc1ccccc1)cn2-c1ccc(OCc2ccccc2)cc1 [Example 144, (2E)-3-{1-[4-(benzyloxy)phenyl]-3-(2-phenylethyl)-1H-indol-5-yl}-2-propenoic acid] | 42
31 | CC(C)Oc1cccc(-n2cc(CCc3ccccc3)c3cc(CCC(=O)O)ccc32)c1 [Example 163, 3-[1-(3-isopropoxyphenyl)-3-(2-phenylethyl)-1H-indol-5-yl]propanoic acid] | 1750
32 | N#CNC(=O)CCc1ccc2c(c1)c(CCc1ccccc1)cn2-c1ccccc1 [Example 18, N-cyano-3-[1-phenyl-3-(2-phenylethyl)-1H-indol-5-yl]propanamide] | 976
33 | COc1ccc(-n2cc(CCc3ccccc3)c3cc(CCC(=O)O)ccc32)cc1 [Example 77, 3-[1-(4-methoxyphenyl)-3-(2-phenylethyl)-1H-indol-5-yl]propanoic acid 2-amino-2-(hydroxymethyl)propane-1,3-diol salt (1:1)] | 26

Reference: patent publication US8293781B2, “Indole derivatives having cPLA2 inhibiting activity and applications and production methods of the same” (Daiichi Sankyo Company, Limited, priority 2007, dated 2012)
